15 compounds from ChEMBL document CHEMBL5634138, “Discovery of a novel BLT2 antagonist for the treatment of inflammatory airway diseases” (Eur J Med Chem, 2023) can be followed below.

Data set [1] deals with CHO. The experiment in a line: (§1) Cytotoxicity against CHO cells assessed as inhibition of cell growth at 10 uM incubated overnight by MTS assay reltive to control. The format is toxicity, cell-based, Cricetulus griseus. The settings on record: chinese hamster, cho, 10 µM. (In general: Tetrazolium assays rely on reduction of a dye to a coloured formazan, in cell work by metabolically active cells.)

A short description of data set [2]: as §1. The settings on record: chinese hamster, CHO cells, read-out: Activity. The data set is classed as toxicity, cell-based, Cricetulus griseus.
Data set [3] can be described thus: Metabolic stability in mouse liver microsomes assessed as parent compound remaining measured after 30 mins in presence of […]. The format is ADME, Microsome. The settings on record: read-out: Stability.
A short description of data set [4]: Solubility of the compound in deionized water. The format is physicochemical. The settings on record: buffer.
Data set [5] in a line: Metabolic stability in mouse liver microsomes assessed as parent compound remaining measured after 30 mins in absence of […]. The data set is classed as ADME, Microsome. The following applies: read-out: Stability. For orientation: Liver microsomes are a subcellular fraction often used to study metabolism.
The nature of data set [6]: Metabolic stability in mouse liver microsomes assessed as parent compound remaining measured after 30 mins in absence of NADPH. The format is ADME, Microsome. The settings on record: read-out: Stability.
For data set [7], the system named is CHO. Briefly: Inhibition of Akt phosphorylation (unknown origin) expressed in CHO cells harbouring BLT2 by Western blot analysis. The data set is classed as cell-based. The following applies: Homo sapiens. (Immunoblotting shows a protein as a band on a membrane.)
A short description of data set [8]: Metabolic stability in mouse liver microsomes assessed as parent compound remaining measured after 30 mins in presence of NADPH. The format is ADME, Microsome. The following applies: read-out: Stability.
The nature of data set [9]: Metabolic stability in human liver microsomes assessed as parent compound remaining measured after 30 mins in presence of NADPH. The settings on record: read-out: Stability. The format is ADME, Microsome.
Data set [10] concerns CHO. The experiment in a line: Inhibition of Akt phosphorylation (unknown origin) expressed in CHO cells harbouring BLT1 by Western blot analysis. The format is cell-based. The following applies: Homo sapiens.
The nature of data set [11]: Metabolic stability in human liver microsomes assessed as parent compound remaining measured after 30 mins in absence of NADPH. The data set is classed as ADME, Microsome. The following applies: read-out: Stability.
Data set [12] in a line: Metabolic stability in human liver microsomes assessed as parent compound remaining measured after 30 mins in presence of […]. The format is ADME, Microsome. The settings on record: read-out: Stability.
The target of data set [13] is Leukotriene B4 receptor 1 (Homo sapiens) (UniProt Q15722). The experiment in a line: Antagonist activity at human BLT1 expressed in CHO cells assessed as inhibition of LTB4 induced cell migration at 10 uM measured after 3 hrs by chemotaxis assay relative to control. The data set is classed as cell-based. More on the design: scale not given: the % may be the effect or the level left. The following applies: filed as antagonist.

A short description of data set [14]: Metabolic stability in human liver microsomes assessed as parent compound remaining measured after 30 mins in absence of […]. The format is ADME, Microsome. The following applies: read-out: Stability.

What is called solubility is how much of the substance goes into solution per volume.

Activity calls are given as the source filed them. No cut-off for these calls is given here.

Chain of Leukotriene B4 receptor 1 (Homo sapiens) (Q15722 whole entry): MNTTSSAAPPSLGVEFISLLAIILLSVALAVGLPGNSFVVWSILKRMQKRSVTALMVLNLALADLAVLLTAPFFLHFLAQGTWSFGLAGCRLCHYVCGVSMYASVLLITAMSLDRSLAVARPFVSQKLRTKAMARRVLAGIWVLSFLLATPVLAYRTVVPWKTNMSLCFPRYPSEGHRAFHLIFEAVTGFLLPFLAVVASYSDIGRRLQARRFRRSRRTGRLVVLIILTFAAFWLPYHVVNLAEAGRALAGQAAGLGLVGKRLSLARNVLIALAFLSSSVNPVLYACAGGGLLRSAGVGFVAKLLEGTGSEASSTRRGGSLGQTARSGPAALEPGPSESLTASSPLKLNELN

Consider `CCCCC(=O)N(Cc1ccc(-c2ccc(OCC(=O)O)cc2)cc1)c1cccc(C)c1`, for which the Activity result in data set [1] is on record as “Non-Toxic”.

As for `CCCCC(=O)N(Cc1ccc(-c2ccc(OC)cc2)cc1)c1ccccc1`, the Activity result in [1] was “Non-Toxic”. Take `CCCCC(=O)N(Cc1ccc(-c2ccc(O)cc2)cc1)c1cccc(C(F)(F)F)c1`: the inhibition at 10 µM in data set [2] amounted to 5%.

`CCCCC(=O)N(Cc1ccc(-c2ccc(O)cc2)cc1)c1cccc(F)c1`: the remaining at 0.5 h in [3] amounted to 70.1%; in [5], 90.4%; in data set [6], 84.2%; in data set [8] it was 2.2%; in data set [9], 33.5%; in data set [11] it was 96.8%. The remaining at 0.5 h in data set [12] was 92.8%; in data set [14] it was 98.8%. In data set [4], the solubility is less than 0.02 µg/mL. For the same compound, the inhibition entry in data set [7] and in data set [10] was “Active” in each case. In addition, the Activity in data set [13] is 90%; in data set [1] it was “Non-Toxic”. With `CCCCC(=O)N(Cc1ccc(-c2ccccc2CCC(=O)O)cc1)c1ccccc1`, the inhibition at 10 µM in [2] came out at 4%.

Regarding `CCCCC(=O)N(Cc1ccc(-c2ccc(OC)cc2)cc1)c1cccc(F)c1`, the inhibition at 10 µM in data set [2] is 7%. Regarding `CCCCC(=O)N(Cc1ccc(-c2ccc(C(=O)NCC)cc2)cc1)c1ccccc1`, the Activity entry in data set [1] is on record as “Non-Toxic”. On to `CCCCC(=O)N(Cc1ccc(-c2cccc(C(=O)O)c2)cc1)c1ccccc1`, for which the Activity result in data set [1] is recorded as “Non-Toxic”. Consider `CCCCC(=O)N(Cc1ccc(-c2ccccc2CC(=O)O)cc1)c1ccccc1`, for which, in [2], the inhibition at 10 µM stood at 25%. For `CCCCC(=O)N(Cc1ccc(-c2ccc(N)cc2)cc1)c1ccccc1`, the Activity result in [1] is “Non-Toxic”. The same measure, in the same setting: with `CCCCC(=O)N(Cc1ccc(-c2ccc(C(=O)N3CCN(C)CC3)cc2)cc1)c1ccccc1` the entry was “Non-Toxic”; with `CCCCC(=O)N(Cc1ccc(-c2ccc(O)nc2)cc1)c1cccc(F)c1`, “Non-Toxic”.

In the case of `CCCCC(=O)N(Cc1ccc(-c2ccc(C(=O)O)cc2)cc1)c1cccc(F)c1`, the Activity entry in data set [1] was “Non-Toxic”. As for `CCCCC(=O)N(Cc1ccc(-c2ccc(C(=O)O)cc2)cc1)c1ccc(F)cc1`, the Activity result in [1] is on record as “Non-Toxic”.

Consider `CCCCC(=O)N(Cc1ccc(-c2ccc(O/C=C/C(=O)O)cc2)cc1)c1cccc(F)c1`, for which the Activity result in data set [1] is “Non-Toxic”.
